Laboratory results from publication PMC6207720, “Identification and antitumor activity of a novel inhibitor of the NIMA-related kinase NEK6” (Scientific Reports, 2018).

Experiments:
[1] = tested on: NCI-H1299 (lung); test: Cell-based cytotoxicity assay (ATPlite), NCI-H1299; conditions: Homo sapiens, NCI-H1299, 72 h, NA = not active (IC50 greater than 100 µM), read-out: IC50 Values (µM ± SEM)
Excerpt: (§1) The following human carcinoma cell lines were used for the study: MDA-MB-231 and MCF-7 (breast cancer; ATCC, Sesto San Giovanni, MI), PEO1 and COV318 (ovarian cancer; ECACC, Salisbury, UK and ATCC), HCT-15 and SW948 (colon cancer; Public Health England, Salisbury, UK and ATCC), NCI-H1975 and NCI-H1299, (lung cancer; ATCC). Cells were routinely tested free of mycoplasma (MycoAlert mycoplasma detection kit, LONZA, Rockland, ME, USA) and validated by STR (Short Tandem Repeat) DNA profiling (BMR Genomics srl, PD). Cells were grown following supplier indication, in a fully humidified atmosphere of 5% CO2/95% air. All the reagents were purchased from Sigma-Aldrich (St. Louis, MO), if not otherwise specified.

[2] = tested on: HCT15 (colon); test: Cell-based cytotoxicity assay (ATPlite), HCT15; conditions: Homo sapiens, HCT-15, HCT15, 72 h, NA = not active (IC50 greater than 100 µM), read-out: IC50 Values (µM ± SEM)
Excerpt: as §1

[3] = molecular target: NEK7 (Homo sapiens, UniProt Q8TDX7); test: Off-chip Mobility Shift Assay (MSA) profiling, NEK7; type: biochemical; conditions: ATP approximating Km
Method: (§2) Therefore, we decided to evaluate the selectivity of compound 8 against a panel of NEK kinases at 10 µM, using the technique of Off-chip Mobility shift assay. This concentration was chosen according to the guidelines proposed by Knight and Shokat, since the probability of off-target effects increases dramatically above 10 µM[36]. Furthermore, ATP concentration was set to approximate the Km,ATP for each kinase, so that the resulting selectivity profile directly reflects the intrinsic affinities of the inhibitor[37]. […] A major consequence of this substitution may be the redistribution of surface charges at the flexible activation loop resulting in an altered electrostatic potential and ability of NEK6 kinase to interact with other molecules.
(§3) The inhibitory activity of compounds 8 and 21 on NEK6 was also verified with MSA technique (Off-chip Mobility shift assay) (CARNA Biosciences Study ID: CBS170097, CARNA Biosciences, Kobe). […] PKR Inhibitor was used as positive control. For profiling study against NEK kinases (i.e. NEK1, NEK2, NEK6, NEK7, NEK9) (CARNA Biosciences Study ID: CBS170098), 8 was tested at 10 μM and ATP concentration approximating Km for each kinase. Assay condition for kinases are available on “Kinase profiling book” downloading by www.carnabio.com (https://www.carnabio.com/output/pdf/ProfilingProfilingBook_en.pdf).

[4] = molecular target: T1, NEK6 (Homo sapiens, UniProt Q9HC98); test: Off-chip Mobility Shift Assay (MSA), NEK6; type: biochemical
T1 construct: purchased Carna 05-130
Method: as §2, §3

[5] = tested on: MDA-MB-231 (breast); test: Cell-based cytotoxicity assay (ATPlite), MDA-MB-231; conditions: Homo sapiens, MDA-MB-231, 72 h, NA = not active (IC50 greater than 100 µM), read-out: IC50 Values (µM ± SEM)
Excerpt: as §1

[6] = molecular target: T2, NEK2 (Homo sapiens, UniProt P51955); test: Off-chip Mobility Shift Assay (MSA) profiling, NEK2; type: biochemical; conditions: ATP approximating Km
T2 sequence (P51955 1-445): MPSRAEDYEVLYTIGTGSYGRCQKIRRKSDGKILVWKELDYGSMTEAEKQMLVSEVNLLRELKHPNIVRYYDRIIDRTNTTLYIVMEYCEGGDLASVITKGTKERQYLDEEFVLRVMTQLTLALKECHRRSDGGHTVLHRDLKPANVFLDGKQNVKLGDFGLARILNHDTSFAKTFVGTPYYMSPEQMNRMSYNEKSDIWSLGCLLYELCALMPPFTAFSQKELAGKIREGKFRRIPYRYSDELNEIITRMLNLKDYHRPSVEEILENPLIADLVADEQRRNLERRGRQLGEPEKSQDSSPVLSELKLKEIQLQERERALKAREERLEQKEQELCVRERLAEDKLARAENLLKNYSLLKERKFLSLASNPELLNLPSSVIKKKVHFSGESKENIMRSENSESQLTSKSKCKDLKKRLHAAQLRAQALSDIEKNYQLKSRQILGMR
Method: as §2, §3

[7] = tested on: PEO1 cells; test: Cell cycle analysis by flow cytometry; type: cell-based, human; conditions: 48 hours, compound at its IC50 concentration
Method: In order to assess whether the ability of compound 8 to inhibit cell proliferation was accounted for by cell cycle-related changes in cell division, we analysed the progression of PEO1 cells through the cell cycle by flow cytometry at 24, 48 and 72 hours from treatment. PEO1 was selected since, in our experimental conditions, was the cell line showing the highest sensitivity to 8. […] The effect was already measurable at the first experimental time point (24 h) and remained stable over time (Fig. 8).
PEO1 cell cycle perturbations induced by compound 8 (used at its IC50 concentration) were evaluated by standard flow cytometry methods. Briefly, at the end of each incubation period adherent cells were trypsinized, harvested and washed with cold phosphate-buffered saline several times. Cells were then counted, gently fixed in 70% v/v cold ethanol, adding the ethanol dropwise to the cell pellet while vortexing, and incubated at −20 °C for no longer than 7 days. Prior to DNA staining, fixed cells were spun down and treated with RNase (100 µg/ml) for 10 mins to ensure that only DNA was stained. 1 × 10^6/ml cells were then stained with propidium iodide (PI, 0.5 mg/ml) and stored at +4 °C overnight. The day after, stained cells were subjected to flow cytometry. Flow cytometry analysis was performed using the 6-parameter flow cytometer (2 scatter and 4 fluorescence signals) EPICS-XL (Beckman Coulter). A minimum of 30,000 cells of interest were acquired for each sample at a low flow rate (<200 events/sec). Analysis of cell cycle perturbation was performed by the ModFit LT software (Verity software house). Pulse shape processing was used to exclude cell doublets from the analysis.

T1 sequence (Q9HC98 whole entry): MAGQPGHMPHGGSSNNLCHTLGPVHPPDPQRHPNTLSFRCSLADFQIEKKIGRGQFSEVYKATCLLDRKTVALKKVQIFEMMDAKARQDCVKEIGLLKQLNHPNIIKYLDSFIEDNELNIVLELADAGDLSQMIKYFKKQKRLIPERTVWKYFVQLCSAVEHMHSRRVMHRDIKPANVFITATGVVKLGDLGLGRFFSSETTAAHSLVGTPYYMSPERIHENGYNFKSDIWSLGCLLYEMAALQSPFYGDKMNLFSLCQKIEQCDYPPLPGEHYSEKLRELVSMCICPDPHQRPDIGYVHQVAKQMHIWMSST
NEK7, sequence (Q8TDX7 whole entry): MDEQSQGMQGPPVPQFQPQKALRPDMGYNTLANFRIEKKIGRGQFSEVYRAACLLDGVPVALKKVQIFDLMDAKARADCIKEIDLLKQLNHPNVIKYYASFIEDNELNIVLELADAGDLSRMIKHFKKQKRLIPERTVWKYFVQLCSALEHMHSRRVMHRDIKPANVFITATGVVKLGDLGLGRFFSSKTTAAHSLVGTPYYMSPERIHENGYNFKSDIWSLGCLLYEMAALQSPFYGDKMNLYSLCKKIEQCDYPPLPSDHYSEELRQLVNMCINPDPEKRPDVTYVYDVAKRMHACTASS

inhibition at 10 µM [3]: ≤ 0%
inhibition at 10 µM ([4]; 10 µM, ATP approximating Km): 42.5%
IC50 ([4]; CARNA Biosciences Study CBS170097, ATP 75 µM): 13.8 µM
inhibition at 10 µM [6]: ≤ 0%
Structure (SMILES): CC1=C(C#N)C(O)=NC(=O)/C1=C\c1ccc(-c2ccccc2)o1 [Compound 8, (5Z)-2-hydroxy-4-methyl-6-oxo-5-[(5-phenylfuran-2-yl)methylidene]-5,6-dihydropyridine-3-carbonitrile]
IC50 [1]: 87.8 ± 10 µM
IC50 [2]: 98.5 ± 0.5 µM
IC50 [5]: 65 ± 15 µM
percentage of PEO1 cells in G0/G1 [7]: 61%
percentage of PEO1 cells in G2/M [7]: 16%
percentage of PEO1 cells in S [7]: 23%
